Source: the supplement of paper PMC10307832

Experiments:
Assay in all cases: relative viability (nuclei count vs DMSO), 5 days (fraction); higher = more cells survive
Doramapimod + Decitabine = compound: Cc1ccc(-n2nc(C(C)(C)C)cc2NC(=O)Nc2ccc(OCCN3CCOCC3)c3ccccc23)cc1 [Doramapimod] + Nc1ncn([C@H]2C[C@H](O)[C@@H](CO)O2)c(=O)n1 [Decitabine] (partner 2 µM)
How it was run: (§1)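 Relative viability was taken as the ratio of nuclei in treated wells to nuclei in vehicle wells. Lung cancer cell lines in 1536-well plates received compounds by pin tool one day after seeding, either one drug alone or a fixed anchor-drug dose plus five library-drug doses (not always all listed) in √10 steps. Nuclei were counted on 4× images after 5 days of treatment, and values are medians of duplicate plates.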

RAF265 + Luminespib = compound: Cn1c(Nc2ccc(C(F)(F)F)cc2)nc2cc(Oc3ccnc(-c4ncc(C(F)(F)F)[nH]4)c3)ccc21 [RAF265] + CCNC(=O)c1noc(-c2cc(C(C)C)c(O)cc2O)c1-c1ccc(CN2CCOCC2)cc1 [Luminespib] (partner 0.01 µM)
How it was run: as §1

IPA-3 + Crizotinib = compound: C1=CC=C2C(=C1)C=CC(=C2SSC3=C(C=CC4=CC=CC=C43)O)O [IPA-3] + C[C@@H](Oc1cc(-c2cnn(C3CCNCC3)c2)cnc1N)c1c(Cl)ccc(F)c1Cl [Crizotinib] (partner 1 µM)
How it was run: as §1

IPA-3 + Bortezomib = compound: C1=CC=C2C(=C1)C=CC(=C2SSC3=C(C=CC4=CC=CC=C43)O)O [IPA-3] + CC(C)C[C@H](NC(=O)[C@H](Cc1ccccc1)NC(=O)c1cnccn1)B(O)O [Bortezomib] (partner 0.002 µM)
How it was run: as §1

Cell Line | relative viability (Doramapimod + Decitabine; first compound 0.02 µM) | relative viability (Doramapimod + Decitabine; first compound 0.06325 µM) | relative viability (Doramapimod + Decitabine; first compound 0.2 µM) | relative viability (Doramapimod + Decitabine; first compound 0.6325 µM) | relative viability (Doramapimod + Decitabine; first compound 2 µM) | relative viability (RAF265 + Luminespib; first compound 0.01 µM) | relative viability (RAF265 + Luminespib; first compound 0.03162 µM) | relative viability (RAF265 + Luminespib; first compound 0.1 µM) | relative viability (RAF265 + Luminespib; first compound 0.3162 µM) | relative viability (RAF265 + Luminespib; first compound 1 µM) | relative viability (IPA-3 + Crizotinib; first compound 0.2 µM) | relative viability (IPA-3 + Crizotinib; first compound 0.6325 µM) | relative viability (IPA-3 + Crizotinib; first compound 2 µM) | relative viability (IPA-3 + Crizotinib; first compound 6.325 µM) | relative viability (IPA-3 + Crizotinib; first compound 20 µM) | relative viability (IPA-3 + Bortezomib; first compound 0.2 µM) | relative viability (IPA-3 + Bortezomib; first compound 0.6325 µM) | relative viability (IPA-3 + Bortezomib; first compound 2 µM) | relative viability (IPA-3 + Bortezomib; first compound 6.325 µM) | relative viability (IPA-3 + Bortezomib; first compound 20 µM)
EKVX | 0.404 | 0.313 | 0.289 | 0.31 | 0.239 | 0.837 | 0.918 | 0.984 | 0.598 | 0.791 | 1.24 | 0.965 | 0.951 | 0.799 | 1.22 | 1.31 | 0.995 | 1.12 | 0.988 | 1.54
NCI-H460 | 0.499 | 0.434 | 0.487 | 0.553 | 0.46 | 0.0219 | 0.0359 | 0.0291 | 0.0265 | 0.0248 | 1.07 | 0.871 | 0.908 | 0.726 | 0.62 | 1.64 | 1 | 1.24 | 1.07 | 1.05
LCLC-97TM1 | 0.197 | 0.208 | 0.242 | 0.236 | 0.235 | 0.819 | 0.67 | 0.632 | 0.309 | 0.306 | 0.439 | 0.355 | 0.448 | 0.315 | 0.343 | 0.524 | 0.847 | 0.814 | 0.438 | 0.575
COR-L23 | 0.409 | 0.412 | 0.507 | 0.432 | 0.41 | 0.637 | 0.655 | 0.539 | 0.33 | 0.324 | 0.695 | 0.699 | 0.682 | 0.604 | 0.601 | 1.12 | 0.946 | 1.06 | 0.939 | 0.802
NCI-H1355 | 0.372 | 0.357 | 0.347 | 0.407 | 0.359 | 0.705 | 0.726 | 0.747 | 0.411 | 0.246 | 1.21 | 0.999 | 0.778 | 1.07 | 1.11 | 1.44 | 1.25 | 1.18 | 1.16 | 1.3
NCI-H1666 | 0.768 | 0.792 | 0.83 | 0.659 | 0.755 | 1.11 | 1.01 | 1.1 | 1.05 | 0.977 | 1.1 | 1.04 | 1.07 | 1.15 | 0.799 | 0.903 | 0.808 | 0.887 | 0.76 | 0.73
EPLC-272H | 0.377 | 0.389 | 0.361 | – | 0.394 | 0.169 | 0.224 | 0.333 | 0.138 | 0.177 | 1.16 | 0.808 | 0.995 | 0.912 | 1.23 | 0.87 | 0.95 | 0.816 | 0.861 | 1.13
ChaGo-K-1 | 0.555 | 0.54 | 0.541 | 0.49 | 0.503 | 0.722 | 0.666 | 0.575 | 0.545 | 0.396 | 1.32 | 1.08 | 1.17 | 1.09 | 1.23 | 1.03 | 1.1 | 0.861 | 1.08 | 1.31
NCI-H1651 | 0.632 | 0.678 | 0.608 | 0.569 | 0.608 | 1 | 0.812 | 0.971 | 0.807 | 0.714 | 0.962 | 0.85 | 0.909 | 0.88 | 0.961 | 1.02 | 0.912 | 0.998 | 1.04 | 1.06
HCC-44 | 0.958 | 0.984 | 1.03 | 0.945 | 0.978 | 1.17 | 0.986 | 1.06 | 1.05 | 1.05 | 0.859 | 0.735 | 0.917 | 0.804 | 0.807 | 0.918 | 0.852 | 0.897 | 0.894 | 0.835
SW 1573 | 0.506 | 0.388 | 0.615 | 0.575 | 0.366 | 0.571 | 0.179 | 0.161 | 0.131 | 0.149 | 0.802 | 0.814 | 0.933 | 0.872 | 0.811 | 1.18 | 1.04 | 1.36 | 1.13 | 1.25
PC-3 [JPC-3] | 0.834 | 0.816 | 0.857 | 0.888 | 0.766 | 0.667 | 0.654 | 0.713 | – | 0.386 | 1.04 | 0.964 | 0.937 | 0.976 | 0.923 | 0.92 | 0.885 | 0.786 | 0.824 | 0.873
LOU-NH91 | 0.858 | 0.806 | 0.84 | 0.849 | 0.711 | 0.349 | 0.323 | 0.373 | 0.349 | 0.328 | 0.723 | 0.757 | 0.809 | 0.728 | 0.801 | 0.493 | 0.479 | 0.498 | 0.478 | 0.597
PC-14 | 0.261 | 0.22 | 0.215 | 0.277 | 0.197 | 0.163 | 0.128 | 0.248 | – | 0.139 | 0.938 | 0.858 | 1.08 | 0.839 | 1 | 1.09 | 0.79 | 0.914 | 0.805 | 1.04
NCI-H2087 | 0.286 | 0.206 | 0.277 | 0.232 | 0.201 | 0.136 | 0.209 | 0.214 | 0.162 | 0.16 | 0.955 | 0.755 | 0.9 | 0.791 | 0.957 | 1.04 | 0.796 | 0.828 | 0.749 | 0.838
LU99A | 0.905 | 0.948 | 0.754 | 0.97 | 0.759 | 0.262 | 0.194 | 0.229 | 0.182 | 0.202 | 0.635 | 0.529 | 0.615 | 0.517 | 0.533 | 1.23 | 1.07 | 1.28 | 1.04 | 1.06
